Patent US6723726B1 (SmithKline Beecham Corporation, priority 1996, dated 2004)
Where two headings read alike, the source gives them in different places.

Key:
[1] = test system: N87 cells; assay: Cell proliferation assay, N87 gastric tumour cell line; type: cell-based, human; settings: Homo sapiens, 96 h, read-out: Cell Proliferation N87 IC50
Experimental: (§1) The cell proliferation assay uses an immortalised human breast epithelial cell line (HB4a) which has been transformed by over-expression of c-erbB-2. Growth of these cells in low serum is dependent upon the c-erbB-2 tyrosine kinase activity. The specificity of the effect of the test compounds on tyrosine kinase dependent growth over general toxicity is assessed by comparison to an HB4a cell line which has been transfected with ras. Cells are plated at 3000/well in 96-well plates in 0.1 ml medium and allowed to attach overnight, test compound is added in 0.1 ml medium, with a final concentration of 0.5% DMSO, and the plates incubated for 4 days at 37° C. The cells are then examined microscopically for evidence of morphological detransformation and cell mass is estimated by staining with methylene blue and measuring the absorbance at 620 nm. The results are shown in Table 1 below as the IC50 values in nM. Activity against a range of naturally occurring EGFr or c-erbB-2 over-expressing human tumour cell lines (BT474-breast, HN5-head and neck, N87-gastric and Calu3-lung) is assessed with selected compounds by the same methodology. The results are also shown in Table 1 below as the IC50 values in nM.

[2] = test system: HB4a ras cells; assay: Cell proliferation assay, HB4a transfected with ras (general toxicity comparison); type: cell-based, human; settings: Homo sapiens, HB4a, 96 h, read-out: Cell Proliferation HB4a ras IC50
Experimental: as §1

[3] = target: T1, c-erbB-4 (baculovirus expressed recombinant intracellular domain) (Homo sapiens, UniProt Q15303); assay: Substrate phosphorylation assay, c-erbB-4; type: biochemical; settings: ATP and peptide at Km, 30 min, room temperature
T1 construct: baculovirus expressed, recombinant constructs of the intracellular domains of c-erbB-2 and c-erbB-4 that are constitutively active; made in house
T1 sequence (Q15303 676-1308 limits assumed): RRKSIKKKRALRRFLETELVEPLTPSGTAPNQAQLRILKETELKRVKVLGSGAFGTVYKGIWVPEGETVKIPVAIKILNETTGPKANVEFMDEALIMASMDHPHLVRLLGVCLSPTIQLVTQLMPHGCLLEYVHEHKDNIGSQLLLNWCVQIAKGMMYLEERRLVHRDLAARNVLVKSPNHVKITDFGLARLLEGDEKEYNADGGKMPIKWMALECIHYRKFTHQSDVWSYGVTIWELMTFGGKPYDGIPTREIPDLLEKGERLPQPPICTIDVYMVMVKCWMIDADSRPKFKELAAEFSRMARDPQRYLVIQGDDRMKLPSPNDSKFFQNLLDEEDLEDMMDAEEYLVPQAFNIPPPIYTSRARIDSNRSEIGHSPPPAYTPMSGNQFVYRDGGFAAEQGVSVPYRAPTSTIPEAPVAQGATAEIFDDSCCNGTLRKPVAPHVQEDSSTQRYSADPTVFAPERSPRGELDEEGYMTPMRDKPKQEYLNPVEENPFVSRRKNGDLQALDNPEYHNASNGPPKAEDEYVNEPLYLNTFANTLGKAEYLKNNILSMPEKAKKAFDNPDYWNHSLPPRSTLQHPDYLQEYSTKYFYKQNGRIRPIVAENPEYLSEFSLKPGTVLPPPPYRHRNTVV
Experimental: (§2) The substrate phosphorylation assays use baculovirus expressed, recombinant constructs of the intracellular domains of c-erbB-2 and c-erbB-4 that are constitutively active and EGFr isolated from solubilised A431 cell membranes. The method measures the ability of the isolated enzymes to catalyse the transfer of the γ-phosphate from ATP onto tyrosine residues in a biotinylated synthetic peptide (Biotin-[…]. […] The reaction is stopped by the addition of EDTA (final concentration 0.15 mM) and a sample is transferred to a streptavidin-coated 96-well plate. The plate is washed and level of phosphotyrosine on the peptide is determined using a Europium-labelled antiphosphotyrosine antibody and quantified with a time-resolved fluorescence technique.

[4] = test system: HB4a erbB-2 cells; assay: Cell proliferation assay, HB4a transformed by over-expression of c-erbB-2; type: cell-based, human; settings: Homo sapiens, HB4a, 96 h, read-out: Cell Proliferation HB4a erbB-2 IC50
Experimental: as §1

[5] = target: T2, c-erbB-2 (baculovirus expressed recombinant intracellular domain) (Homo sapiens, UniProt P04626); assay: Substrate phosphorylation assay, c-erbB-2; type: biochemical; settings: ATP and peptide at Km, 30 min, room temperature
T2 construct: baculovirus expressed, recombinant constructs of the intracellular domains of c-erbB-2 and c-erbB-4 that are constitutively active; made in house
T2 sequence (P04626 676-1255 limits assumed): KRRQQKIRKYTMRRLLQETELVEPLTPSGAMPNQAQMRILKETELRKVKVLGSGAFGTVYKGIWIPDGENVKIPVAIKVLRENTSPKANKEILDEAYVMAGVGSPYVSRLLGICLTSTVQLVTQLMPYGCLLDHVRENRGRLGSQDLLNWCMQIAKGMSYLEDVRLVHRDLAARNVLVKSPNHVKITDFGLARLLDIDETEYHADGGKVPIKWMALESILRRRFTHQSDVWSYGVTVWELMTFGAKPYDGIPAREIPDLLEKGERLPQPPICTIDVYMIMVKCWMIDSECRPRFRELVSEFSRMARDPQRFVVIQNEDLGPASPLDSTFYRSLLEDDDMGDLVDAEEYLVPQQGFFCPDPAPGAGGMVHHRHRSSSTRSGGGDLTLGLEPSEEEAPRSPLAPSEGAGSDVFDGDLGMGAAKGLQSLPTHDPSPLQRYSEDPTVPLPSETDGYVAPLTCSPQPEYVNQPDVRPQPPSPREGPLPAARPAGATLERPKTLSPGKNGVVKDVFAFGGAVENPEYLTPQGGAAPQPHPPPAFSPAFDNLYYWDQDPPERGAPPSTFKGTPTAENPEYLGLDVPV
Experimental: as §2

[6] = test system: BT474 cells; assay: Cell proliferation assay, BT474 breast tumour cell line; type: cell-based, human; settings: Homo sapiens, BT-474, 96 h, read-out: Cell Proliferation BT474 IC50
Experimental: as §1

[7] = test system: Calu3 cells; assay: Cell proliferation assay, Calu3 lung tumour cell line; type: cell-based, human; settings: Homo sapiens, Calu-3, 96 h, read-out: Cell Proliferation Calu3 IC50
Experimental: as §1

[8] = test system: HN5 cells; assay: Cell proliferation assay, HN5 head and neck tumour cell line; type: cell-based; settings: Homo sapiens, HN5, 96 h, read-out: Cell Proliferation HN5 IC50
Experimental: as §1

[9] = target: T3, EGFr isolated from solubilised A431 cell membranes (Homo sapiens, UniProt P00533); assay: Substrate phosphorylation assay, EGFr; type: biochemical; settings: ATP and peptide at Km, 30 min, room temperature
T3 construct: EGFr isolated from solubilised A431 cell membranes; endogenous in cells; host or cells: A431 cell membranes (solubilised)
T3 sequence (P00533 25-1210): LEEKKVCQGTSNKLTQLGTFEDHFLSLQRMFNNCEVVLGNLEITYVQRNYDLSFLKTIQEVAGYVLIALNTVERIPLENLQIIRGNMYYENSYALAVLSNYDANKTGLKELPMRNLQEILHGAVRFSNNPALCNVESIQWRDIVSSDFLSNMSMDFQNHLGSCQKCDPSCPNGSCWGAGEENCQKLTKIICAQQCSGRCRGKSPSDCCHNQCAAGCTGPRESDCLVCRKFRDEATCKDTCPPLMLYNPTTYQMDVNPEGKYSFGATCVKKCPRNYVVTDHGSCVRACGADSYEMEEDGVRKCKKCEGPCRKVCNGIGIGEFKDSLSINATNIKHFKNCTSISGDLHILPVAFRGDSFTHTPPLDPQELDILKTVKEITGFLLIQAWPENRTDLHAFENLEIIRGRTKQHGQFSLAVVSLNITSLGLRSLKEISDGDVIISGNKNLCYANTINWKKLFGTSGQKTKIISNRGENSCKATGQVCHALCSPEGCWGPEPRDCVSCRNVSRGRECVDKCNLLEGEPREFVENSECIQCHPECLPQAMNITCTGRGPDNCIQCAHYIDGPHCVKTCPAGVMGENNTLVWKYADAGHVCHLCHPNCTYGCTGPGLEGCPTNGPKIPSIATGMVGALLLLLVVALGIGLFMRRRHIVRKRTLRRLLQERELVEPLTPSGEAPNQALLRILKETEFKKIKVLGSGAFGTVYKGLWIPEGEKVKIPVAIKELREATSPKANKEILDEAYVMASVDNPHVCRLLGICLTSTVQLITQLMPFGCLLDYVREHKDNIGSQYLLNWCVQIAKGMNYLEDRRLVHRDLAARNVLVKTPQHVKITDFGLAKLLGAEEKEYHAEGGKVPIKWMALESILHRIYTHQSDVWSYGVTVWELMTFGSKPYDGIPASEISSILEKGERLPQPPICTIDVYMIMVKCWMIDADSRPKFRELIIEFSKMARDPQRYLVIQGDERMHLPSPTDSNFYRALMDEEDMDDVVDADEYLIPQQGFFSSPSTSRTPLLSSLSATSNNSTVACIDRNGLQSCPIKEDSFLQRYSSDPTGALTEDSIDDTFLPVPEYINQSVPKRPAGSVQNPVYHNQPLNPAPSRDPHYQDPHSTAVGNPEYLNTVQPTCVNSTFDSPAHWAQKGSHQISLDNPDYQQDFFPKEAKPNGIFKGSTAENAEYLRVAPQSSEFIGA
Experimental: as §2

[10] = 4 days, methylene blue staining

With `CNc1cc2c(Nc3ccc4c(cnn4Cc4ccccc4)c3)ncnc2cn1` [Example 37, N4-(1-Benzyl-1H-indazol-5-yl)-N6-methyl-pyrido[3,4-d]pyrimidine-4,6diamine] the IC50 [1, 10] was 2200 nM, the IC50 [2, 10] was 17000 nM and the IC50 [3] was 180 nM. For the same compound, the IC50 [4, 10] was 520 nM, the IC50 [5] was 65 nM and the IC50 [6, 10] was 1100 nM. It also gave an IC50 [7, 10] of 3700 nM, an IC50 [8, 10] of 2000 nM and an IC50 [9] of 30 nM.
With `Cn1cncc1-c1cc2c(Nc3ccc4c(cnn4Cc4ccccc4)c3)ncnc2cn1` [Example 11, (1-Benzyl-1H-indazol-5-yl)-(6-(3-methyl-3H-imidazol-4-yl)-pyrido[3,4-d]pyrimidin-4-yl)-amine] the IC50 [1, 10] was 370 nM, the IC50 [2, 10] was 3800 nM and the IC50 [3] was 55 nM. It also gave an IC50 [4, 10] of 1400 nM, an IC50 [5] of 9 nM and an IC50 [6, 10] of 1400 nM. The IC50 [7, 10] was 1200 nM, the IC50 [8, 10] was 1400 nM and the IC50 [9] was 15 nM.
`CN(C)c1cc2c(Nc3ccc4c(cnn4Cc4ccccc4)c3)ncnc2cn1` [Example 2, N 4-(1-Benzyl-1H-indazol-5-yl)-N6,N6-dimethyl-pyrido[3,4-d]pyrimidine-4.6-diamine] showed an IC50 [1] of 240 nM, an IC50 [2] of 17000 nM and an IC50 [3] of 20 nM. The IC50 [4] was 110 nM, the IC50 [5] was 19 nM and the IC50 [6] was 140 nM. The IC50 [7] was 380 nM and the IC50 [8] was 300 nM.
